Experimental data taken from US20220220450A1, “FABRICATION OF A BIOMIMETIC PLATFORM SYSTEM AND METHODS OF USE” (Cornell University Center for Technology Licensing, priority 2017, published 2022).

Key:
[1] = test system: MDA-MB231 cancer cells; test: Doxorubicin response of cancer cells in 3D-collagen only biomimetic platform system; type: cell-based, human; conditions: 0.6% (w/v) collagen, 200,000 MDA-MB231 cells labelled with mCherry; 1-10 μM doxorubicin; FIG. 19B
Procedure: Images were analyzed by confocal microscopy.

[2] = test system: adipocytes; test: Doxorubicin permeability of 3D-breast component biomimetic platform without cancer cells (BM only); type: cell-based, human; conditions: 0.6% (w/v) collagen, 15% v/v adipocytes, stromal cells, breast organoids, no cancer cells; increasing doxorubicin concentrations 0-10 μM; FIG. 19C
[3] = test system: MDA-MB231 cancer cells; test: Doxorubicin response and uptake in 3D-breast component biomimetic platform system with cancer cells
Description: Lentivirus transfected human cell lines were selected for use in the biomimetic platform systems disclosed herein. Color selection was randomly assigned to ensure proper differentiation between cell types under fluorescent and confocal microscopy. […] Cancer cell lines, MDA-MB231, MDA-MB468, and HS-578T were transfected with mCherry lentivirus.
Surgical specimens were obtained. In a sterile biosafety hood, breast specimens were homogeneously minced. Excess lipid was carefully removed from tissue by suction, and minced tissue was mixed on a 1:1 ratio with complete Ham's media containing 1 mg/mL of collagenase Type I and 0.01 mg/mL hyaluronidase (for adipocytes and Adipose derived stem cell (ASC)-containing stromal vascular fraction (SVF) isolation) or 1 mg/mL of collagenase type IA and 0.01 mg/mL hyaluronidase (for isolation of breast organoids).
The total amount of 1×M199 media needed for collagen dilution during the neutralization process was reduced by 2504, to allow for the volume needed for reconstitution of cellular components that were added to neutralize collagen. The Collagen platform without breast components was fully diluted by adding 250 microliters of media with desired number of vascular cells (e.g., pericytes), while the biomimetic platform with breast components was diluted by adding 250 μL of MEGM media containing extracted organoids, SVF containing ASCs, and cancer cells. Components were mixed homogeneously into the neutralized collagen, and mature adipocytes were added to the biomimetic platform containing breast stroma at 15% v/v (v/v refers to the volume of the adipocytes+SVF over the total volume of the biocompatible substrate present in the biomimetic platform system described herein).
Biomimetic constructs were fixed in formaldehyde for 30 minutes followed by 3 consecutive 5-minute Phosphate Buffered Saline (PBS) washes. […] Images were analyzed by confocal microscopy. […]
Confocal images for doxorubicin response were analyzed using Imaris™ for visualization of 3D image volume. […]

[4] = test system: HS578T cancer cells; test: Doxorubicin response in 3D-breast component versus 3D-collagen only biomimetic platform system; type: cell-based, human; conditions: doxorubicin 0-10 μM, FIG. 21A-21D
[5] = test system: MDA-MB468 cancer cells; test: as above; type: cell-based, human; conditions: doxorubicin 0-10 μM, FIG. 20C
[6] = 0.6% (w/v) collagen, 15% v/v adipocytes, stromal cells, breast organoids, 200,000 MDA-MB231 cells, 1-10 μM doxorubicin, FIG. 19A

- permeability of the biomimetic platform and adipocytes to doxorubicin (signal) [2]: increased signal
- doxorubicin uptake (intrinsic fluorescence signal) [3, 6]: uptake was increased
SMILES: COc1cccc2c1C(=O)c1c(O)c3c(c(O)c1C2=O)C[C@@](O)(C(=O)CO)C[C@@H]3O[C@H]1C[C@H](N)[C@H](O)[C@H](C)O1 [doxorubicin]
- absolute number of cells (mCherry and DAPI signals) [1]: decrease in the absolute number of cells
- absolute number of cells (mCherry and DAPI signals) [3, 6]: decrease in the absolute number of cells
- sensitivity of cancer cells to doxorubicin, 3D-breast component versus 3D-collagen only platform ([3]; MDA-MB231, doxorubicin 0-10 μM, FIG. 20A-20B): decreased sensitivity
- sensitivity of cancer cells to doxorubicin, 3D-breast component versus 3D-collagen only platform [4]: decreased sensitivity
- sensitivity of cancer cells to doxorubicin, 3D-breast component versus 3D-collagen only platform [5]: decreased sensitivity
